From patent US6358885B1, “Substituted phenylheterocyclic herbicides” (Mississippi State University, priority 1992, dated 2002)

Assays:
barley [1] = experiment: Test B preemergence/postemergence greenhouse plant response rating 0 to 10; assay type: in vivo, Hordeum vulgare; details: for Plant response rating, Barley: 0 to 10 scale
In short: (§1)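 Postemergence treatment of plants two to eighteen cm tall ran alongside preemergence treatment of planted seed, each using compound in a non-phytotoxic solvent.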

bedstraw = experiment: as above; assay type: in vivo, Galium aparine; details: POSTEMERGENCE
In short: as §1

cheatgrass = experiment: as above; assay type: in vivo, Bromus secalinus; details: for Plant response rating, Cheatgrass: 0 to 10 scale
In short: as §1

cocklebur = experiment: as above; assay type: in vivo, Xanthium pensylvanicum; details: for Plant response rating, Cocklebur: 0 to 10 scale
In short: as §1

giant foxtail [2] = experiment: as above; assay type: in vivo, Setaria faberii; details: 0 to 10 scale
In short: as §1

lambsquarters = experiment: as above; assay type: in vivo, Chenopodium album; details: 0 to 10 scale
In short: as §1

morningglory [3] = experiment: as above; assay type: in vivo, Ipomoea hederacea; details: 0 to 10 scale
In short: as §1

soybean [4] = experiment: as above; assay type: in vivo, Glycine max; details: 0 to 10 scale
In short: as §1

velvetleaf = experiment: as above; assay type: in vivo, Abutilon theophrasti; details: 0 to 10 scale
In short: as §1

barley [5] = experiment: Test C preemergence/postemergence greenhouse plant response rating 0 to 100; assay type: in vivo, Hordeum vulgare; details: POSTEMERGENCE
In short: (§2)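 Compounds in non-phytotoxic solvent applied preemergence to sandy loam one day after planting, postemergence at the 1–4 leaf stage, or to ~2.5 cm floodwater over silt loam.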

blackgrass = experiment: as above; assay type: in vivo, Alopecurus myosuroides; details: POSTEMERGENCE
In short: as §2

chickweed = experiment: as above; assay type: in vivo, Stellaria media; details: POSTEMERGENCE
In short: as §2

giant foxtail [6] = experiment: as above; assay type: in vivo, Setaria faberii; details: POSTEMERGENCE
In short: as §2

morningglory [7] = experiment: as above; assay type: in vivo, Ipomoea hederacea; details: POSTEMERGENCE
In short: as §2

rape = experiment: as above; assay type: in vivo, Brassica napus; details: POSTEMERGENCE
In short: as §2

sorghum = experiment: as above; assay type: in vivo, Sorghum bicolor; details: POSTEMERGENCE
In short: as §2

soybean [8] = experiment: as above; assay type: in vivo, Glycine max; details: POSTEMERGENCE
In short: as §2

rice = experiment: Test C flood test plant response rating 0 to 100; assay type: in vivo, Oryza sativa
In short: as §2

CCCN1C(=O)COc2cc(F)c(-c3nn4c(c3Cl)CCCC4)cc21 [Compound 32]
5: Plant response rating, Barley (barley [1]; POSTEMERGENCE, Rate 10 g/ha) | Plant response rating (0 to 10 scale), Barley (barley [1]; POSTEMERGENCE, Rate 50 g/ha) | Plant response rating (0 to 10 scale), Cheatgrass (cheatgrass; POSTEMERGENCE, Rate 50 g/ha) | Plant response rating, Cheatgrass (cheatgrass; PREEMERGENCE, Rate 50 g/ha) | Plant response rating, Cocklebur (cocklebur; PREEMERGENCE, Rate 50 g/ha) | Plant response rating, Giant foxtail (giant foxtail [2]; POSTEMERGENCE, Rate 50 g/ha)
75: Plant response rating Rice Japonica (rice; flood test species listed under POSTEMERGENCE, 62 g/ha, 0 to 100 scale)
40: Plant response rating (0 to 100), Sorghum (sorghum; Rate 4 g/ha)
100: Plant response rating, Chickweed (chickweed; 62 g/ha, 0 to 100 scale) | Plant response rating, Morningglory (morningglory [7]; 62 g/ha, 0 to 100 scale) | Plant response rating (0 to 100), Morningglory (morningglory [7]; Rate 16 g/ha) | Plant response rating, Rape (rape; 62 g/ha, 0 to 100 scale)
50: Plant response rating Barley Igri (barley [5]; 62 g/ha, 0 to 100 scale) | Plant response rating, Blackgrass (blackgrass; 62 g/ha, 0 to 100 scale) | Plant response rating (0 to 100), Giant foxtail (giant foxtail [6]; Rate 16 g/ha) | Plant response rating (0 to 100), Morningglory (morningglory [7]; Rate 1 g/ha) | Plant response rating (0 to 100), Sorghum (sorghum; Rate 16 g/ha) | Plant response rating (0 to 100), Soybean (soybean [8]; Rate 4 g/ha)
85: Plant response rating (0 to 100), Rape (rape; Rate 4 g/ha)
60: Plant response rating (0 to 100), Chickweed (chickweed; Rate 4 g/ha) | Plant response rating (0 to 100), Rape (rape; Rate 1 g/ha) | Plant response rating, Sorghum (sorghum; 62 g/ha, 0 to 100 scale)
70: Plant response rating, Giant foxtail (giant foxtail [6]; 62 g/ha, 0 to 100 scale) | Plant response rating (0 to 100), Morningglory (morningglory [7]; Rate 4 g/ha) | Plant response rating (0 to 100), Soybean (soybean [8]; Rate 16 g/ha)
95: Plant response rating (0 to 100), Rape (rape; Rate 16 g/ha)
7: Plant response rating, Soybean (soybean [4]; POSTEMERGENCE, Rate 10 g/ha)
10: Plant response rating (0 to 10 scale), Bedstraw (bedstraw; Rate 50 g/ha) | Plant response rating (0 to 10 scale), Cocklebur (cocklebur; POSTEMERGENCE, Rate 50 g/ha) | Plant response rating, Lambsquarter (lambsquarters; POSTEMERGENCE, Rate 10 g/ha) | Plant response rating, Lambsquarter (lambsquarters; POSTEMERGENCE, Rate 50 g/ha) | Plant response rating, Lambsquarter (lambsquarters; PREEMERGENCE, Rate 50 g/ha) | Plant response rating, Morningglory (morningglory [3]; POSTEMERGENCE, Rate 10 g/ha) | Plant response rating, Morningglory (morningglory [3]; POSTEMERGENCE, Rate 50 g/ha) | Plant response rating, Velvetleaf (velvetleaf; POSTEMERGENCE, Rate 10 g/ha) | Plant response rating, Velvetleaf (velvetleaf; POSTEMERGENCE, Rate 50 g/ha) | Plant response rating, Velvetleaf (velvetleaf; PREEMERGENCE, Rate 50 g/ha) | Plant response rating (0 to 100), Blackgrass (blackgrass; Rate 1 g/ha)
4: Plant response rating, Cheatgrass (cheatgrass; POSTEMERGENCE, Rate 10 g/ha) | Plant response rating, Giant foxtail (giant foxtail [2]; POSTEMERGENCE, Rate 10 g/ha) | Plant response rating, Giant foxtail (giant foxtail [2]; PREEMERGENCE, Rate 50 g/ha)
30: Plant response rating (0 to 100), Barley Igri (barley [5]; Rate 4 g/ha) | Plant response rating (0 to 100), Barley Igri (barley [5]; Rate 16 g/ha) | Plant response rating (0 to 100), Blackgrass (blackgrass; Rate 4 g/ha) | Plant response rating (0 to 100), Blackgrass (blackgrass; Rate 16 g/ha) | Plant response rating (0 to 100), Chickweed (chickweed; Rate 1 g/ha) | Plant response rating (0 to 100), Giant foxtail (giant foxtail [6]; Rate 4 g/ha) | Plant response rating (0 to 100), Sorghum (sorghum; Rate 1 g/ha) | Plant response rating (0 to 100), Rice Japonica (rice; Rate 16 g/ha, under POSTEMERGENCE head (flood test species))
2: Plant response rating, Cheatgrass (cheatgrass; PREEMERGENCE, Rate 10 g/ha) | Plant response rating, Giant foxtail (giant foxtail [2]; PREEMERGENCE, Rate 10 g/ha) | Plant response rating, Morningglory (morningglory [3]; PREEMERGENCE, Rate 50 g/ha)
0: Plant response rating, Barley (barley [1]; PREEMERGENCE, Rate 10 g/ha) | Plant response rating, Barley (barley [1]; PREEMERGENCE, Rate 50 g/ha) | Plant response rating, Cocklebur (cocklebur; PREEMERGENCE, Rate 10 g/ha) | Plant response rating, Soybean (soybean [4]; PREEMERGENCE, Rate 50 g/ha) | Plant response rating (0 to 100), Rice Japonica (rice; POSTEMERGENCE section, flood test, Rate 1 g/ha)
9: Plant response rating, Cocklebur (cocklebur; POSTEMERGENCE, Rate 10 g/ha)
90: Plant response rating (0 to 100), Chickweed (chickweed; Rate 16 g/ha) | Plant response rating, Soybean (soybean [8]; 62 g/ha, 0 to 100 scale)
8: Plant response rating, Bedstraw (bedstraw; Rate 10 g/ha, 0 to 10 scale) | Plant response rating, Soybean (soybean [4]; POSTEMERGENCE, Rate 50 g/ha)
20: Plant response rating (0 to 100), Barley Igri (barley [5]; Rate 1 g/ha) | Plant response rating (0 to 100), Giant foxtail (giant foxtail [6]; Rate 1 g/ha) | Plant response rating (0 to 100), Soybean (soybean [8]; Rate 1 g/ha) | Plant response rating (0 to 100), Rice Japonica (rice; POSTEMERGENCE section, flood test, Rate 4 g/ha)
